Measurements from US20070015810A1, “5(R)-Substituted Pyrazoline Compounds, their Preparation and Use as Medicaments” (LABORATORIOS DEL DR. ESTEVE, S.A., priority 2005, published 2007).
Counter-ions that a name gives are not always drawn.

Key:
[1] = target: T1, recombinant human cannabinoid 1 receptor (CB1) (Homo sapiens, UniProt P21554); assay: [35S]GTPγS binding assay, antagonism to CB1-receptor in CHO cell membranes; assay type: biochemical; details: compound 1 μM versus agonist WIN 55,212-2; 100% = difference between maximal WIN 55,212-2 effect alone and with Rimonabant (1 μM)
T1 construct: expressed in transfected cells; membrane preparation
T1 sequence (P21554 whole entry): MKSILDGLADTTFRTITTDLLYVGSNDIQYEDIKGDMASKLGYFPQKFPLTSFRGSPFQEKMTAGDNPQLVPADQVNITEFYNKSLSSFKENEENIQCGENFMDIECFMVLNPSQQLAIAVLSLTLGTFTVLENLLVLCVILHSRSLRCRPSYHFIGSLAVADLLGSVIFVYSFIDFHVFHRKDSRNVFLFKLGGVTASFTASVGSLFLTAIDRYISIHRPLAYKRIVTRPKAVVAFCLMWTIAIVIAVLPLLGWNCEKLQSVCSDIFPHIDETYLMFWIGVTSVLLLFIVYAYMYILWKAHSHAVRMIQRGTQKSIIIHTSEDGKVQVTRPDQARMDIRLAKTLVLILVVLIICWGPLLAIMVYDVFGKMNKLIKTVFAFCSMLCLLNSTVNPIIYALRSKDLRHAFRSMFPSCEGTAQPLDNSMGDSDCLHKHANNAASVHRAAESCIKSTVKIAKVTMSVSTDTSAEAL
Procedure: VI. In Vitro Determination of Antagonism to CB1-Receptor
Chinese hamster ovary (CHO) cells stably expressing recombinant human cannabinoid 1 receptor (CB1) were cultured in nutrient mixture Ham's F 12 supplemented with 10% heat-inactivated fetal bovine serum, 2 mM L-glutamine, 50 U/ml penicillin, 50 U/ml streptomycin and 0.5 mg/ml geneticin. In order to obtain cells, culture flasks were washed twice with phosphate buffered saline and scraped. Then, cells were collected by centrifugation (200×g, 10 min) and stored dry at −80° C. Cells were homogenized in ice-cold 20 mM HEPES, 10 mM EDTA (pH 7.5) and centrifuged at 40,000×g for 15 min at 4° C. The membrane pellet was resuspended in 20 mM HEPES, 0.1 mM EDTA (pH 7.5) and centrifuged for 15 min at 4° C. The final membrane pellet was resuspended in 20 mM HEPES, 0.1 mM EDTA (pH 7.5), and divided in aliquots and stored at −80° C. until use.
The reaction was performed in 96-well plates. […] Radioactivity was determined using a Wallac Microbeta Trilux. […]
The antagonism of the pyrazoline compounds of general formula I to the CB1-receptor was determined according to the method described in Pharmacological methods, part VI (table 2).

[2] = target: CB1-receptor (UniProt P20272); assay: In-vitro determination of affinity (binding) to the CB1-receptor, radioligand [3H]-CP55940; details: Pharmacological methods part I
From the text: 1. In-vitro determination of affinity to CB1CB2-Receptors
The in-vitro determination of the affinity of the inventive substituted pyrazoline compounds to CB1/CB2-Rezeptors is carded out as described in the publication of Ruth A. Ross, Heather C. Brockie et al., “Agonist-inverse agonist characterization at CB1 and CB2 cannabinoid receptors of L-759633, L759656 and AM630”, British Journal of Pharmacology, 126, 665-672, (1999), whereby the transfected human CB1 and CB2 receptors of Receptor Biology, Inc. are used. The radioligand used for both receptors is [^3H]-CP55940. The respective parts of the description is hereby incorporated by reference and forms part of the present disclosure. […]
Binding affinity to CB1 receptor was evaluated according to a modification of the method described by Govaerts et al., Eur J Pharmac Sci 23, 233-243 (2004). […]
Briefly, cerebellum from male wistar rats (250-300 g) were carefully dissected on ice and homogenates were prepared with Potter-Helveheim in a cold 50 mM Tris-HCl solution containing 5 mM MgCl2, 1 mM EDTA and 0.25 M sucrose, pH 7.4. […] Total protein concentration was determined using the Bio-Rad Lowry method based kit. […] Compounds were present at various concentrations and the non specific binding was determined in the presence of 10 μM HU-210. […]
Binding data were analyzed by non-linear regression with the software GraphPad Prism Version 3.03. […]

[3] = Chronic administration in animals made obese by a simplified cafeteria diet; assay type: in vivo, rats
[4] = Effect of continued administration on body weight in rats; assay type: in vivo; details: 10 mg/kg i.p. once daily
Procedure: V. Determination of the Effect of Continued Administration of the Inventive Compounds on Body Weight in Rats
The weight of the animals was measured for 36 days, and the data grouped into 3 periods for analysis. Period 1, days 1-8 (period for adaptation of the animals to the environmental conditions: one week without treatment plus first day of treatment); Period 2, days 9-22 (treatment period: two weeks); Period 3, days 23-36 (escape treatment period: two weeks). The administration of the drugs started on day 8, immediately after the animal was weighted, and finished on day 21. The treatment period ranges between one day after first administration and one day after last administration. The drugs were administered i.p. once daily. For comparative purposes, absolute weights were transformed into relative percentages (each weight was divided by that of day 8 and multiplied by 100). […] All results are expressed as mean±S.E.M.
The dependence of body-weight (expressed as a percentage relative to day 8) on time (number of days after inclusion in the study) and treatment was assessed by a two-way (time, treatment) analysis of variance (ANOVA) with repeated measures on the time factor. […] The differences between pairs of curves (treatments) were analyzed using appropriate contrasts within the ANOVA test. […]

Compound | Antagonism [%] [1] | IC50 [2] | body weight on chronic administration ([3]; animals made obese by cafeteria diet (high-fat diet, chocolate, ground peanuts)) | body weight after 28 days of drug treatment versus vehicle-treated controls ([3]; obese rats, 28 days of treatment) | effect on body weight ([4]; days 8-21, FIG. 1) | recovery of weight after treatment ([4]; escape period days 23-36, FIG. 1)
O=C(NN1CCCCC1)C1=NN(c2ccc(Cl)cc2Cl)[C@@H](c2ccc(Cl)cc2)C1 [A, (R)-N-piperidinyl-5-(4chlorophenyl)-1-(2,4-dichlorophenyl)-4,5-dihydro-1H-pyrazole-3-carboxamide] | 106% | 16.1 nM | significantly decreased body weight | lower than those of the vehicle-treated controls | stronger action than the racemate | slower recovery of weight
O=C(NN1CCCCC1)C1=NN(c2ccc(Cl)cc2Cl)[C@@H](c2ccc(Cl)cc2)C1 [A-Hydrochloride] | 113% | 20 nM | – | – | – | –
